In patent US12365696B2, “Small-molecule focal adhesion kinase (FAK) inhibitors” (DANA-FARBER CANCER INSTITUTE, INC., priority 2019, dated 2025):
Like-named read-outs stand apart in the source and are kept apart here.

Legend:
Assay in all cases: KINOMEscan
Type in all cases: binding
[1] = target: RSK2(Kin.Dom.1-N-terminal) (Homo sapiens (Human), UniProt P51812); settings: 10000 nM, read-out: Percent Control
[2] = target: CDK9 (Homo sapiens (Human), UniProt P50750); settings: CDK9, 10000 nM; read-out: Percent Control
[3] = target: MELK (Homo sapiens (Human), UniProt Q14680); settings: 10000 nM, read-out: Percent Control
[4] = target: PIKFYVE (Homo sapiens (Human), UniProt Q9Y2I7); settings: 10000 nM, read-out: Percent Control
[5] = target: RSK4(Kin.Dom.1-N-terminal) (Homo sapiens (Human), UniProt Q9UK32); settings: 10000 nM, read-out: Percent Control
[6] = target: CDK8 (Homo sapiens (Human), UniProt P49336); settings: CDK8, 10000 nM; read-out: Percent Control
CDK8, sequence (P49336 whole entry): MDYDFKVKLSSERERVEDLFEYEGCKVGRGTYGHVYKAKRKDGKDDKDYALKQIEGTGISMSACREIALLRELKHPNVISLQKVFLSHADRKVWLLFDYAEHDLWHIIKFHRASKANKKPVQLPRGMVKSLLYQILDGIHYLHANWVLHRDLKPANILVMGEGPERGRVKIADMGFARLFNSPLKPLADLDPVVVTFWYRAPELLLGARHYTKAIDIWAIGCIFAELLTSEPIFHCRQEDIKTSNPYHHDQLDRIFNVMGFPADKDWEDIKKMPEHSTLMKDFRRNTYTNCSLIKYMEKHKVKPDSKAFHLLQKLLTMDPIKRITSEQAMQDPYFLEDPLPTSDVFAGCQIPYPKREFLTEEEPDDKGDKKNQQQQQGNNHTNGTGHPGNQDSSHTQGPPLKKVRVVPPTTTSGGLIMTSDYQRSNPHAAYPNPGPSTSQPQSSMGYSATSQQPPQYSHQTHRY

[7] = target: PIK3C2B (Homo sapiens (Human), UniProt O00750); settings: 10000 nM, read-out: Percent Control
[8] = target: NEK11 (Homo sapiens (Human), UniProt Q8NG66); settings: NEK11, 10000 nM; read-out: Percent Control
NEK11, sequence (Q8NG66 whole entry): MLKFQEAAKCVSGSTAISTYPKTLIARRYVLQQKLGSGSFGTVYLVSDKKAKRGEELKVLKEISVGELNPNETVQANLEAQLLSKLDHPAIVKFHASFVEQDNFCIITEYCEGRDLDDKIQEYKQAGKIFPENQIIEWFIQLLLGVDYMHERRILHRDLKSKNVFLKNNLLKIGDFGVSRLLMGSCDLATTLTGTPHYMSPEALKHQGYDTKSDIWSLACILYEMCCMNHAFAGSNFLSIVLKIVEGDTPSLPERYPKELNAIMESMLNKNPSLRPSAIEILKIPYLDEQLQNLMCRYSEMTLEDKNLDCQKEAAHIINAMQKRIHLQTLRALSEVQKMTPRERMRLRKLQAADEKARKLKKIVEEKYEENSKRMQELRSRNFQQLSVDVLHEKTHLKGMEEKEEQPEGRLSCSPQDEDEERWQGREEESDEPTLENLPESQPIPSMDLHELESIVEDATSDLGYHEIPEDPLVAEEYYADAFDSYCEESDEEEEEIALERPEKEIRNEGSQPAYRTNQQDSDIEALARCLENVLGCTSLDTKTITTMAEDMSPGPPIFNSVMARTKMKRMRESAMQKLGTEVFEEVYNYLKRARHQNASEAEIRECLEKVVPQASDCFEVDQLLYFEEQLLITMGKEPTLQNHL

[9] = target: CAMK2G (Homo sapiens (Human), UniProt Q13555); settings: 10000 nM, read-out: Percent Control
[10] = target: MLCK (Homo sapiens (Human), UniProt Q32MK0); settings: 10000 nM, read-out: Percent Control
[11] = target: ABL1-phosphorylated (Homo sapiens (Human), UniProt P00519); settings: 10000 nM, read-out: Percent Control
[12] = target: MAPKAPX5 (Homo sapiens (Human), UniProt Q8IW41); settings: read-out: Percent Control
MAPKAPX5, sequence (Q8IW41 whole entry): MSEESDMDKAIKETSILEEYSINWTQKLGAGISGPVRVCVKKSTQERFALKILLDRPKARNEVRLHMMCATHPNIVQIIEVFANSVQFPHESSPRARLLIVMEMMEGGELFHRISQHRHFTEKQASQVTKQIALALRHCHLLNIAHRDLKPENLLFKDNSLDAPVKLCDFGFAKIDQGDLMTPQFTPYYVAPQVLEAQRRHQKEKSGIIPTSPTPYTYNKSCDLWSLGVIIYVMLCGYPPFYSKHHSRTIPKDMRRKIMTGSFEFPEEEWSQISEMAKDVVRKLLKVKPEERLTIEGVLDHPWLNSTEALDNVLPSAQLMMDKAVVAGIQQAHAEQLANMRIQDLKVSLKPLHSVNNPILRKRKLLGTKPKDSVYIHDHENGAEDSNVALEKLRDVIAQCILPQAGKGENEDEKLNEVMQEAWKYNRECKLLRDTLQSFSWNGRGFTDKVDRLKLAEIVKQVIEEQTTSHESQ

[13] = target: CDK4-cyclinD1 (Homo sapiens (Human), UniProt P11802); settings: CDK4-cyclinD1, 10000 nM; read-out: Percent Control
CDK4-cyclinD1, sequence (P11802 whole entry): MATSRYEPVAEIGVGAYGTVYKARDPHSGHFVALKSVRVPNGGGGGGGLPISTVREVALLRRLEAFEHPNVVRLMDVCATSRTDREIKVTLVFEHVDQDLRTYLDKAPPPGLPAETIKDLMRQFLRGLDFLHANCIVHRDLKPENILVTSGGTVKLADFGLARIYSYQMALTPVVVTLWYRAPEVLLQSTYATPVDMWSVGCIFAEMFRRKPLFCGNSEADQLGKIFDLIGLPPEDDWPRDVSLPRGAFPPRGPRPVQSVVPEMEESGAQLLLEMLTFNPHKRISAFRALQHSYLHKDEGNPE
CDK4-cyclinD1, sequence (P24385 whole entry partner): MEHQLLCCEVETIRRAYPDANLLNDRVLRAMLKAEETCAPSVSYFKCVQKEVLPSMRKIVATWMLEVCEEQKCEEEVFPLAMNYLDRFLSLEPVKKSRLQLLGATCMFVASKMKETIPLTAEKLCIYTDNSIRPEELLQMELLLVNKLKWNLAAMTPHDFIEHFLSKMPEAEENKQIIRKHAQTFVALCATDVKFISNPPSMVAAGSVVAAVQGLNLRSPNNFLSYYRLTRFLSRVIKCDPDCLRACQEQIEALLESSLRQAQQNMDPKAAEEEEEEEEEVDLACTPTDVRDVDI

[14] = target: YANK1 (Homo sapiens (Human), UniProt Q8WU08); settings: YANK1, 10000 nM; read-out: Percent Control
[15] = target: EPHB1 (Homo sapiens (Human), UniProt P54762); settings: EPHB1, 10000 nM; read-out: Percent Control
[16] = target: ACVR2A (Homo sapiens (Human), UniProt P27037); settings: 10000 nM, read-out: Percent Control
[17] = target: NEK5 (Homo sapiens (Human), UniProt Q6P3R8); settings: NEK5, 10000 nM; read-out: Percent Control
[18] = target: DCAMKL2 (Homo sapiens (Human), UniProt Q8N568); settings: DCAMKL2, 10000 nM; read-out: Percent Control
[19] = target: CHEK1 (Homo sapiens (Human), UniProt O14757); settings: CHEK1, 10000 nM; read-out: Percent Control
[20] = target: MEK1 (Homo sapiens (Human), UniProt Q02750); settings: MEK1, 10000 nM; read-out: Percent Control
[21] = target: PIK3CA(I800L) (Homo sapiens (Human), UniProt P42336, I800L); settings: 10000 nM, read-out: Percent Control
[22] = target: NEK7 (Homo sapiens (Human), UniProt Q8TDX7); settings: NEK7, 10000 nM; read-out: Percent Control
[23] = target: PIM1 (Homo sapiens (Human), UniProt P11309); settings: PIM1, 10000 nM; read-out: Percent Control
PIM1, sequence (P11309 whole entry): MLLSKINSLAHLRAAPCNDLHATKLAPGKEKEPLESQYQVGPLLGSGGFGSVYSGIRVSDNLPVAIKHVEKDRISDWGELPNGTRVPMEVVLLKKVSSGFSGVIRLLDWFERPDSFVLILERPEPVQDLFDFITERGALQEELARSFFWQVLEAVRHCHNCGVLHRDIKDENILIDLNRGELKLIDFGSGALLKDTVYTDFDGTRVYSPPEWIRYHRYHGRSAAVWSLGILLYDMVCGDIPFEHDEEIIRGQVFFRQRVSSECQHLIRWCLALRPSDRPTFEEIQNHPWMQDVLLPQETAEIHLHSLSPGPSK

[24] = target: HCK (Homo sapiens (Human), UniProt P08631); settings: 10000 nM, read-out: Percent Control
[25] = target: EPHA6 (Homo sapiens (Human), UniProt Q9UF33); settings: EPHA6, 10000 nM; read-out: Percent Control
[26] = target: PDGFRA (Homo sapiens (Human), UniProt P16234); settings: 10000 nM, read-out: Percent Control
[27] = target: DRAK1 (Homo sapiens (Human), UniProt Q9UEE5); settings: DRAK1, 10000 nM; read-out: Percent Control
[28] = target: WNK2 (Homo sapiens (Human), UniProt Q9Y3S1); settings: WNK2, 10000 nM; read-out: Percent Control
[29] = target: WNK1 (Homo sapiens (Human), UniProt Q9H4A3); settings: WNK1, 10000 nM; read-out: Percent Control
WNK1, sequence (Q9H4A3 whole entry): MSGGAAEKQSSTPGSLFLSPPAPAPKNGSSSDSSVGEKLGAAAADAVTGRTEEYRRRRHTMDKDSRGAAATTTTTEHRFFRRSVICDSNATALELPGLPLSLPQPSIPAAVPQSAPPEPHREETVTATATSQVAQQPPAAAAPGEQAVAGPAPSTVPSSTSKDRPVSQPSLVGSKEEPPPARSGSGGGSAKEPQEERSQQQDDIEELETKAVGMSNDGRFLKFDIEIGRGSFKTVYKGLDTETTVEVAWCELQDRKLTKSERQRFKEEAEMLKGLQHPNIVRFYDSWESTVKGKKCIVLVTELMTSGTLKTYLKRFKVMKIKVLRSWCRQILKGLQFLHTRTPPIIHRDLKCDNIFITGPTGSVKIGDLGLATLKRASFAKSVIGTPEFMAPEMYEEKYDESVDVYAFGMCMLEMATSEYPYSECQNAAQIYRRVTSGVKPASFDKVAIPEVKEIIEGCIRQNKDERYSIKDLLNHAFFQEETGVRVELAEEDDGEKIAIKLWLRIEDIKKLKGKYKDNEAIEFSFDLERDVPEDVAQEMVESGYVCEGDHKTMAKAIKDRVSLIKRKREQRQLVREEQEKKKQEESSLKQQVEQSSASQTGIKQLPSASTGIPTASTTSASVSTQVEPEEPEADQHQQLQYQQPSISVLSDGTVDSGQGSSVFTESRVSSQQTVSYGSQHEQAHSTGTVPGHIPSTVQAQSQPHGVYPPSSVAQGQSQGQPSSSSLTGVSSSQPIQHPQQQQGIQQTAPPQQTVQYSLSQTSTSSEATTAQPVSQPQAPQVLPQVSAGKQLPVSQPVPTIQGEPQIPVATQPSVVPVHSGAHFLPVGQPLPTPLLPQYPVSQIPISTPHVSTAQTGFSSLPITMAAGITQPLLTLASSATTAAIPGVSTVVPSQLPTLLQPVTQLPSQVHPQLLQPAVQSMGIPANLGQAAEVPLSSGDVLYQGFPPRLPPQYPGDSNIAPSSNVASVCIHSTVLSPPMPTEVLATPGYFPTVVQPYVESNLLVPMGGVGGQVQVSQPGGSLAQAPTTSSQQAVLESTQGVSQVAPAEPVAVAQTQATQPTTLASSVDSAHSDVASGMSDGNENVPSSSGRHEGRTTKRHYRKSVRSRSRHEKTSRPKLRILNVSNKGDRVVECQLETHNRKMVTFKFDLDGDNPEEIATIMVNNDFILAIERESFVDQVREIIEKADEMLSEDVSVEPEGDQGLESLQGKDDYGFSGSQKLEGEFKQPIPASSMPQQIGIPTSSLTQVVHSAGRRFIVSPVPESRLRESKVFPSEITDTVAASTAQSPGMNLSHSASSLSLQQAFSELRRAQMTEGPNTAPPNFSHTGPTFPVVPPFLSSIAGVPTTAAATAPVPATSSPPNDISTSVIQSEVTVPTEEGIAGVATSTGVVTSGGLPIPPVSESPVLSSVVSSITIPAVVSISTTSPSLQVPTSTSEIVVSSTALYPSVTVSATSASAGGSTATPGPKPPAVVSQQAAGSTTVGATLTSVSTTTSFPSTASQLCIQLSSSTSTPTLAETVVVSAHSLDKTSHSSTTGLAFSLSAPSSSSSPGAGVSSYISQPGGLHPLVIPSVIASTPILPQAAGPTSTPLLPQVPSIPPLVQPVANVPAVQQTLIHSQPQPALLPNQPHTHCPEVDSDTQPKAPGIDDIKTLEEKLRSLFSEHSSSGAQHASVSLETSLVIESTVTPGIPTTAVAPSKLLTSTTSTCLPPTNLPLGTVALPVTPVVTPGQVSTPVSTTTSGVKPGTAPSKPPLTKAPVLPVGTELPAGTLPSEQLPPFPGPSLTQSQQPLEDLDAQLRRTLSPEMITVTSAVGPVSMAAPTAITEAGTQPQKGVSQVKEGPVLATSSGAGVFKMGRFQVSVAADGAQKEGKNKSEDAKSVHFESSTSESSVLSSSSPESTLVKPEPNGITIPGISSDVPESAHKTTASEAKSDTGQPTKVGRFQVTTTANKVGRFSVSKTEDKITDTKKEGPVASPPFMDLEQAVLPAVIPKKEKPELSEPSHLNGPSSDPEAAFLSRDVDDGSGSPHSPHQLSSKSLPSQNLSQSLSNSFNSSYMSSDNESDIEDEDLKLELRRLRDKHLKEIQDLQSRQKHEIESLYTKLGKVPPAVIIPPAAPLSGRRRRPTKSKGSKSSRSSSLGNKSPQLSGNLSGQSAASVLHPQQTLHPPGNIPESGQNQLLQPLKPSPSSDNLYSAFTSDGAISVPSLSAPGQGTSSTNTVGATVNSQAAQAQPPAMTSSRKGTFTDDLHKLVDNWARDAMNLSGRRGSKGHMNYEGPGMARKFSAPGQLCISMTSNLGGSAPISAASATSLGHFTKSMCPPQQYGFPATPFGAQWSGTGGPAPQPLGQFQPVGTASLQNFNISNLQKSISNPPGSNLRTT

[30] = target: ICK (Homo sapiens (Human), UniProt Q9UPZ9); settings: 10000 nM, read-out: Percent Control
[31] = target: DCAMKL1 (Homo sapiens (Human), UniProt O15075); settings: DCAMKL1, 10000 nM; read-out: Percent Control
[32] = target: ERK5 (Homo sapiens (Human), UniProt Q13164); settings: ERK5, 10000 nM; read-out: Percent Control
[33] = target: EPHA4 (Homo sapiens (Human), UniProt P54764); settings: EPHA4, 10000 nM; read-out: Percent Control
[34] = target: CSK (Homo sapiens (Human), UniProt P41240); settings: 10000 nM, read-out: Percent Control

SMILES | remaining binding at 10 µM [1] [%] | remaining binding at 10 µM [2] [%] | remaining binding at 10 µM [3] [%] | remaining binding at 10 µM [4] [%] | remaining binding at 10 µM [5] [%] | remaining binding at 10 µM [6] [%] | remaining binding at 10 µM [7] [%] | remaining binding at 10 µM [8] [%] | remaining binding at 10 µM [9] [%] | remaining binding at 10 µM [10] [%] | remaining binding at 10 µM [11] [%] | remaining binding at 10 µM [13] [%] | remaining binding at 10 µM [14] [%] | remaining binding at 10 µM [15] [%] | remaining binding at 10 µM [16] [%] | remaining binding at 10 µM [17] [%] | remaining binding at 10 µM [18] [%] | remaining binding at 10 µM [19] [%] | remaining binding at 10 µM [20] [%] | remaining binding at 10 µM [21] [%] | further results
COc1cc(N2CCC(N3CCN(C)CC3)CC2)ccc1Nc1ncc2c(n1)N(C)c1sc(C)nc1C(=O)N2 [Compound 3, 6-((2-methoxy-4-(4-(4-methylpiperazin-1-yl)piperidin-1-yl)phenyl)amino)-2,4-dimethyl-4,9-dihydro-10H-pyrimido[5,4-b]thiazolo[5,4-e][1,4]diazepin-10-one] | 99 | 74 | 99 | 98 | 100 | 78 | 86 | 100 | 79 | 94 | 17 | 100 | 77 | 48 | 76 | 97 | 87 | 79 | 100 | 100 | remaining binding at 10 µM ([12]; MAPKAPX5, 10000 nM): 100%; remaining binding at 10 µM [22]: 63%; remaining binding at 10 µM [23]: 70%; remaining binding at 10 µM [24]: 69%; remaining binding at 10 µM [25]: 83%; remaining binding at 10 µM [26]: 100%; remaining binding at 10 µM [27]: 95%; remaining binding at 10 µM [28]: 74%; remaining binding at 10 µM [29]: 100%; remaining binding at 10 µM [30]: 100%; remaining binding at 10 µM [31]: 91%; remaining binding at 10 µM [32]: 80%; remaining binding at 10 µM [33]: 87%; remaining binding at 10 µM [34]: 85%
COc1cc(N2CCC(N3CCN(C)CC3)CC2)ccc1Nc1ncc2c(n1)N(C)c1sc(C)nc1C(=O)N2C [Compound 5, 6-((2-methoxy-4-(4-(4-methylpiperazin-1-yl)piperidin-1-yl)phenyl)amino)-2,4,9-trimethyl-4,9-dihydro-10H-pyrimido[5,4-b]thiazolo[5,4-e][1,4]diazepin-10-one] | 97 | 98 | 88 | 60 | 91 | 100 | 100 | 100 | 97 | 100 | 79 | 90 | 100 | 93 | 97 | 100 | 3 | 59 | 95 | 70 | remaining binding at 10 µM ([12]; MAPKAPK5, 10000 nM): 93%; remaining binding at 10 µM [22]: 100%; remaining binding at 10 µM [23]: 97%; remaining binding at 10 µM [24]: 95%; remaining binding at 10 µM [25]: 86%; remaining binding at 10 µM [26]: 88%; remaining binding at 10 µM [27]: 100%; remaining binding at 10 µM [28]: 100%; remaining binding at 10 µM [29]: 89%; remaining binding at 10 µM [30]: 100%; remaining binding at 10 µM [31]: 7.9%; remaining binding at 10 µM [32]: 30%; remaining binding at 10 µM [33]: 68%; remaining binding at 10 µM [34]: 100%
